Measurements: patent publication US20030129629A1, “Methods and compositions for the identification, assessment, prevention, and therapy of human cancers” (Millennium Pharmaceuticals, Inc., priority 2000, published 2003)
Like-named read-outs stand apart in the source and are kept apart here.

Experiments:
[1] = tested on: 60 cancer cell lines (NCI 60 cancer cell line series); assay: NCI-DTP in vitro cancer screen, sulforhodamine B (SRB) growth inhibition, 48 hour exposure; type: cell-based, human
Method in brief: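 NCI-DTP panel of 60 cancer cell lines plated day 0 at line-specific densities, exposed from day 1 to compound at 5 ten-fold-spaced doses in duplicate wells. After 48 h, cell mass stained with sulforhodamine B; −log GI50 derived from dose–response curves, averaged, and classed Low, Medium or High sensitivity.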

[2] = tested on: 60 cancer cell lines (NCI 60 cancer cell line series); details: cited from earlier work

COc1cc([C@@H]2c3cc4c(cc3[C@@H](O[C@@H]3O[C@@H]5CO[C@@H](c6cccs6)O[C@H]5[C@H](O)[C@H]3O)[C@H]3COC(=O)[C@H]23)OCO4)cc(OC)c1O [Teniposide]
6.0: −Log (GI50) ([2]; Melanoma SK-MEL-2 CL10005)
5.8: −Log (GI50) ([2]; Melanoma SK-MEL-28 CL10008)
3: classification of cell line as Low(1), Medium(2), High(3) sensitivity to compound ([1]; Breast MCF7(I) CL5001) | classification of cell line as Low(1), Medium(2), High(3) sensitivity to compound ([1]; Leukemia CCRF-CEM(I) CL7003) | classification of cell line as Low(1), Medium(2), High(3) sensitivity to compound ([1]; Leukemia HL-60(I) CL7008) | classification of cell line as Low(1), Medium(2), High(3) sensitivity to compound ([1]; Leukemia MOLT-4 CL7006) | classification of cell line as Low(1), Medium(2), High(3) sensitivity to compound ([1]; Leukemia SR CL7019) | sensitivity classification Low(1)/Medium(2)/High(3) ([1]; NSCLC NCI-H460 CL1021) | sensitivity classification Low(1)/Medium(2)/High(3) ([1]; Renal CAKI-1 CL9015)
2: classification of cell line as Low(1), Medium(2), High(3) sensitivity to compound ([1]; Breast BT-549 CL5013) | classification of cell line as Low(1), Medium(2), High(3) sensitivity to compound ([1]; Breast HS-578T CL5006) | classification of cell line as Low(1), Medium(2), High(3) sensitivity to compound ([1]; Breast MDA-MB-231 CL5005) | classification of cell line as Low(1), Medium(2), High(3) sensitivity to compound ([1]; Breast MDA-MB-435 CL5011) | classification of cell line as Low(1), Medium(2), High(3) sensitivity to compound ([1]; Breast MDA-N CL5012) | classification of cell line as Low(1), Medium(2), High(3) sensitivity to compound ([1]; Breast T-47D CL5014) | classification of cell line as Low(1), Medium(2), High(3) sensitivity to compound ([1]; CNS SF-268 CL12014) | classification of cell line as Low(1), Medium(2), High(3) sensitivity to compound ([1]; CNS SF-295 CL12015) | classification of cell line as Low(1), Medium(2), High(3) sensitivity to compound ([1]; CNS SF-539 CL12016) | classification of cell line as Low(1), Medium(2), High(3) sensitivity to compound ([1]; CNS SNB-19 CL12002) | classification of cell line as Low(1), Medium(2), High(3) sensitivity to compound ([1]; CNS SNB-75(I) CL12005) | classification of cell line as Low(1), Medium(2), High(3) sensitivity to compound ([1]; CNS U251(I) CL12009) | classification of cell line as Low(1), Medium(2), High(3) sensitivity to compound ([1]; Colon COLO-250 CL4010) | classification of cell line as Low(1), Medium(2), High(3) sensitivity to compound ([1]; Colon HCC-2998 CL4002) | classification of cell line as Low(1), Medium(2), High(3) sensitivity to compound ([1]; Colon HCT-15 CL4015) | classification of cell line as Low(1), Medium(2), High(3) sensitivity to compound ([1]; Colon HCT-116 CL4003) | classification of cell line as Low(1), Medium(2), High(3) sensitivity to compound ([1]; Colon HT29(I) CL4001) | classification of cell line as Low(1), Medium(2), High(3) sensitivity to compound ([1]; Colon KM12 CL4017) | classification of cell line as Low(1), Medium(2), High(3) sensitivity to compound ([1]; Colon SW-620 CL4009) | classification of cell line as Low(1), Medium(2), High(3) sensitivity to compound ([1]; Leukemia K562(I) CL7005) | classification of cell line as Low(1), Medium(2), High(3) sensitivity to compound ([1]; Leukemia RPMI-8226(I) CL7010) | classification of cell line as Low(1), Medium(2), High(3) sensitivity to compound ([1]; Melanoma LOX IMVI CL10001) | classification of cell line as Low(1), Medium(2), High(3) sensitivity to compound ([1]; Melanoma M14 CL10014) | classification of cell line as Low(1), Medium(2), High(3) sensitivity to compound ([1]; Melanoma MALME-3M CL10002) | classification of cell line as Low(1), Medium(2), High(3) sensitivity to compound ([1]; Melanoma SK-MEL-2 CL10005) | classification of cell line as Low(1), Medium(2), High(3) sensitivity to compound ([1]; Melanoma SK-MEL-28 CL10008) | sensitivity classification Low(1)/Medium(2)/High(3) ([1]; NSCLC NCI-H23(I) CL1001) | sensitivity classification Low(1)/Medium(2)/High(3) ([1]; NSCLC NCI-H522 CL1003) | sensitivity classification Low(1)/Medium(2)/High(3) ([1]; Ovarian IGROV1 CL6010) | sensitivity classification Low(1)/Medium(2)/High(3) ([1]; Ovarian OVCAR-3 CL6001) | sensitivity classification Low(1)/Medium(2)/High(3) ([1]; Ovarian OVCAR-5 CL6003) | sensitivity classification Low(1)/Medium(2)/High(3) ([1]; Ovarian OVCAR-8 CL6005) | sensitivity classification Low(1)/Medium(2)/High(3) ([1]; Ovarian SK-OV-3 CL6011) | sensitivity classification Low(1)/Medium(2)/High(3) ([1]; Prostate DU-145 CL11003) | sensitivity classification Low(1)/Medium(2)/High(3) ([1]; Prostate PC-3(I) CL11001) | sensitivity classification Low(1)/Medium(2)/High(3) ([1]; Renal 786-0 CL9018) | sensitivity classification Low(1)/Medium(2)/High(3) ([1]; Renal A498 CL9013) | sensitivity classification Low(1)/Medium(2)/High(3) ([1]; Renal ACHN CL9023) | sensitivity classification Low(1)/Medium(2)/High(3) ([1]; Renal RXF-393 CL9016) | sensitivity classification Low(1)/Medium(2)/High(3) ([1]; Renal SN12C CL9008) | sensitivity classification Low(1)/Medium(2)/High(3) ([1]; Renal TK10 CL9024)
1: classification of cell line as Low(1), Medium(2), High(3) sensitivity to compound ([1]; Breast MCF7/ADRr CL5002) | sensitivity classification Low(1)/Medium(2)/High(3) ([1]; NSCLC NCI-H332M CL1017) | sensitivity classification Low(1)/Medium(2)/High(3) ([1]; Ovarian OVCAR-4 CL6002) | sensitivity classification Low(1)/Medium(2)/High(3) ([1]; Renal UO-31 CL9004)
6.5: −Log (GI50) ([2]; NSCLC NCI-H226 CL1013)

N.N.[Cl][Pt][Cl] [cisplatin, cis-Diamminedichloroplatinum (II), reference compound]
5.2: −Log (GI50) ([2]; Ovarian SK-OV-3 CL6011)
5.5: −Log (GI50) ([2]; Breast MCF7(I) CL5001)
1: classification of cell line as Low(1), Medium(2), High(3) sensitivity to compound ([1]; Breast MDA-MB-231 CL5005) | classification of cell line as Low(1), Medium(2), High(3) sensitivity to compound ([1]; Breast T-47D CL5014) | classification of cell line as Low(1), Medium(2), High(3) sensitivity to compound ([1]; Colon COLO-250 CL4010) | classification of cell line as Low(1), Medium(2), High(3) sensitivity to compound ([1]; Colon HCT-15 CL4015) | classification of cell line as Low(1), Medium(2), High(3) sensitivity to compound ([1]; Colon HT29(I) CL4001) | sensitivity classification Low(1)/Medium(2)/High(3) ([1]; Renal A498 CL9013)
2: classification of cell line as Low(1), Medium(2), High(3) sensitivity to compound ([1]; Breast BT-549 CL5013) | classification of cell line as Low(1), Medium(2), High(3) sensitivity to compound ([1]; Breast HS-578T CL5006) | classification of cell line as Low(1), Medium(2), High(3) sensitivity to compound ([1]; Breast MCF7/ADRr CL5002) | classification of cell line as Low(1), Medium(2), High(3) sensitivity to compound ([1]; Breast MDA-N CL5012) | classification of cell line as Low(1), Medium(2), High(3) sensitivity to compound ([1]; CNS SF-539 CL12016) | classification of cell line as Low(1), Medium(2), High(3) sensitivity to compound ([1]; CNS SNB-75(I) CL12005) | classification of cell line as Low(1), Medium(2), High(3) sensitivity to compound ([1]; CNS U251(I) CL12009) | classification of cell line as Low(1), Medium(2), High(3) sensitivity to compound ([1]; Colon HCC-2998 CL4002) | classification of cell line as Low(1), Medium(2), High(3) sensitivity to compound ([1]; Colon SW-620 CL4009) | classification of cell line as Low(1), Medium(2), High(3) sensitivity to compound ([1]; Leukemia K562(I) CL7005) | classification of cell line as Low(1), Medium(2), High(3) sensitivity to compound ([1]; Leukemia RPMI-8226(I) CL7010) | classification of cell line as Low(1), Medium(2), High(3) sensitivity to compound ([1]; Melanoma M14 CL10014) | classification of cell line as Low(1), Medium(2), High(3) sensitivity to compound ([1]; Melanoma SK-MEL-28 CL10008) | sensitivity classification Low(1)/Medium(2)/High(3) ([1]; NSCLC NCI-H522 CL1003) | sensitivity classification Low(1)/Medium(2)/High(3) ([1]; Ovarian IGROV1 CL6010) | sensitivity classification Low(1)/Medium(2)/High(3) ([1]; Ovarian OVCAR-4 CL6002) | sensitivity classification Low(1)/Medium(2)/High(3) ([1]; Ovarian OVCAR-5 CL6003) | sensitivity classification Low(1)/Medium(2)/High(3) ([1]; Ovarian OVCAR-8 CL6005) | sensitivity classification Low(1)/Medium(2)/High(3) ([1]; Prostate DU-145 CL11003) | sensitivity classification Low(1)/Medium(2)/High(3) ([1]; Renal RXF-393 CL9016) | sensitivity classification Low(1)/Medium(2)/High(3) ([1]; Renal UO-31 CL9004)
3: classification of cell line as Low(1), Medium(2), High(3) sensitivity to compound ([1]; CNS SF-268 CL12014) | classification of cell line as Low(1), Medium(2), High(3) sensitivity to compound ([1]; Leukemia HL-60(I) CL7008) | classification of cell line as Low(1), Medium(2), High(3) sensitivity to compound ([1]; Melanoma LOX IMVI CL10001) | sensitivity classification Low(1)/Medium(2)/High(3) ([1]; NSCLC NCI-H23(I) CL1001) | sensitivity classification Low(1)/Medium(2)/High(3) ([1]; NSCLC NCI-H460 CL1021)
